# Experimental data from a melting point compilation (Tetko et al.; mined from patent text by program, amines drawn as free bases though some values may be those of a salt).
row,SMILES,melting point [°C]
1,Cc1c(CC(=O)O)c2cc(O)ccc2n1C(=O)c1ccc(F)cc1,180 to 182
2,Clc1ccc(N2CCCCC2)cc1,69
3,COC(=O)c1cc(C(=O)OC)n(-c2ccc([N+](=O)[O-])cc2C(=O)c2ccccc2)n1,150 to 152
4,COc1cc(N2CCN(C)CC2)ccc1Nc1ncc2cc3ccccc3n2n1,150 to 153
5,CCOC(=O)c1cc(O)c(C(=O)c2ccccc2)c([N+](=O)[O-])c1,167 to 168
6,CCOC(=O)C(Cc1ccccc1CCCBr)(NC(C)=O)C(=O)OCC,73 to 74.5
7,CCCc1c(OCCCOc2cc(OCc3ccccc3)c(-c3ccc(F)cc3)cc2CC)cccc1Oc1cc(F)ccc1C(=O)OC,77 to 78
8,CNS(=O)(=O)c1c[nH]c(-c2ccc(Cl)cc2)n1,246 to 248
9,COc1ccc(/C=C/c2ccc3c(=O)n(-c4ccccn4)ncc3c2)cc1,213 to 214
10,N#CCc1cc(Cl)cc(Cl)c1,31 to 32
11,CCCCCc1ccc(-c2ncc(-c3ccc(O)cc3)cn2)cc1,152 to 153
12,Nc1nc2c(s1)CCN(C/C=C\c1cccnc1)CC2,125 to 126
13,NCCc1c[nH]c2ccc(NC(=O)Nc3ccccc3)cc12,192 to 194
14,O=C(Oc1ccc(-c2cc3ccccc3[nH]2)cc1)c1ccccc1,220
15,CCc1cccc(C)c1CNc1cc(C(=O)OC)cn2c(C)nnc12,214
16,OC(c1ccc2c(c1)CCN2)(C(F)F)C(F)F,130 to 134
17,CN1C(=O)CC[C@]2(C)c3ccc(-c4cnc5ccccc5c4)cc3CC[C@@H]12,180 to 185
18,Cc1oc(-c2ccccc2)nc1CCC(N)=O,149 to 150
19,Fc1ccc(Nc2nc(N/N=C/c3ccc4ccccc4c3)nc(N3CCOCC3)n2)cc1,225 to 226
20,CCOC(=O)c1cc(=O)c2cc(OC)cc(Br)c2o1,159 to 161
21,Cc1ccc([C@@H](Sc2cc(C)ccc2N)[C@H](O)C(N)=O)cc1,145 to 146
22,Cc1cc(-c2cccc(NC(=O)N[C@@H]3c4cc(C#N)ccc4OC(C)(C)[C@H]3O)c2)nn1C,120 to 130
23,CCn1ncc2c(NCC3CCCCC3)c3cc(S(C)=O)ccc3nc21 (stereo not drawn),186 to 187
24,CCc1cc(O)cc(=O)o1,106 to 108
25,C=Cc1ccc(Nc2nc(Cl)nc(Cl)n2)cc1,152 to 154

row,SMILES,melting point [°C]
1,O=C(CCCBr)Nc1ccc(O)cc1,142 to 144
2,CCC#COc1ccc(S(=O)(=O)NC(CSCc2ccccc2)C(=O)NO)cc1 (stereo not drawn),137 to 138
3,CCCCCCC1=C(Br)C(CBr)(NCc2ccccc2)OC1=O (stereo not drawn),72 to 75
4,CCc1c(O)ccc2c1CCCC2,94 to 95
5,CC12CC(O)C3=C4CCC(=O)C=C4CCC3C1C(O)CC2=O (stereo not drawn),146
6,COc1ncc(NS(=O)(=O)c2cccc(Cl)c2Cl)c(OC)n1,124 to 126
7,O=[N+]([O-])c1cc(F)ccc1Sc1ccccc1,66 to 67
8,CC(C)(C)c1ccc(C(O)CCCCC2CCCCC2)cc1C(C(N)=O)C1c2ccccc2Oc2ccccc21 (stereo not drawn),121 to 122
9,CC(=O)c1cc2c(s1)Oc1ccccc1N=C2N1CCN(C)CC1,143 to 144
10,CO[C@@H]1CN(CCn2c(C)nc3ccccc3c2=O)CC[C@@H]1NC(=O)c1cc(Cl)c(N)c2c1OCC2 (relative stereo),275
11,Cc1nc(C(N)=O)cn1-c1ccc(Cl)cc1,138 to 140
12,O=S1CCON=C1c1ccc(Cl)s1 (stereo not drawn),102
13,C=CCn1c(=O)c(C(=O)OCC)c(N2CCN(C(=O)c3cccs3)CC2)c2cccnc21,89 to 96
14,CON=C1[C@@H](c2cc(OC)c(OC)c(OC)c2)CC[C@@H]1c1cc(OC)c(OC)c(OC)c1 (relative stereo),61 to 63
15,CC(C)(C)c1ccc(C#N)cc1[N+](=O)[O-],70.5 to 71.5
16,N#Cc1coc2ccc(Br)cc2c1=O,193 to 200
17,CCOC(=O)c1cnc(CC)nc1NCc1ccc(-c2ccccc2-c2nnn[nH]2)cc1,114 to 116
18,CCCCCCCCCCCC(=O)NC(=O)OCc1nc(C(C)C)c(Sc2cc(Cl)cc(Cl)c2)n1CC,100 to 102
19,O=C(O)CCCc1ccc(C(=O)CCCc2ccccc2)cc1,111 to 112
20,CCOC(=O)NCC(C)C(NC(=O)OCC)NC(=O)OCC (stereo not drawn),138 to 140
21,CC(=O)CCc1cccc(C(N)=O)c1,122 to 125
22,N#CCc1ccc(-c2ccc(C(CC3CCOCC3)c3ccc(S(=O)(=O)C4CC4)cc3)[nH]2)nc1 (stereo not drawn),139 to 141
23,CCCCCCCCCCCCCCCCCCC(COC(C)=O)(COC(C)=O)NC(C)=O,90 to 91
24,COc1ccc(C(C)(C)OC)cc1CN[C@H]1C2CCN(CC2)[C@H]1C(c1ccccc1)c1ccccc1,127
25,O=Cc1cccc(-c2cnco2)n1,151

row,SMILES,melting point [°C]
1,CC(C)(C)c1ccc(CCC(C=O)CC2CCCCC2)cc1NC(=O)CC1c2ccccc2Oc2ccccc21 (stereo not drawn),117 to 118
2,C[C@]12CC[C@H](O)CC1=CCC1C2CC[C@@]2(C)C1CC[C@@H]2C1=CC(=O)OC1 (stereo partly drawn),286 to 287
3,COC(=O)c1nc2ccc(CO)cc2cc1C,84.2
4,COc1cccc(Oc2cccc(-c3cccc(C(=O)NCCC#N)c3)n2)c1,85 to 86
5,COc1ccc2nc(CCCCCCC(=O)O)ccc2c1,84 to 87
6,COC(=O)C1=C(C)Nc2ccnc(OC(C)C)c2C1c1c(Cl)cccc1Cl (stereo not drawn),245
7,CCOC(=O)Cc1nc(-c2ccccc2)oc1-c1ccoc1,84 to 85
8,CCOc1nn(Cc2ccc(OCc3nc(-c4ccco4)oc3C)nc2)cc1CC(=O)O,155 to 156
9,Cc1cc(NC(=O)C(C)(O)COc2cccc(C(F)(F)F)c2)ccc1[N+](=O)[O-] (stereo not drawn),84 to 87
10,Cc1cc(-c2noc(C(F)(F)F)n2)cc(C)c1OCCCc1ccc(=O)[nH]c1,128 to 130
11,CCOC(=O)c1cnc2cn[nH]c2c1Nc1cccs1,188 to 190
12,COc1cccc2c1Cc1c(OC)cccc1C2(CCO)CCO,193 to 196
13,Cc1ccc(N2C(=O)C(Cl)=C(C(=O)c3ccc(C(C)C)cc3)C2c2ccc(OC(F)(F)F)cc2)nn1 (stereo not drawn),293
14,O=C1c2c(O)cccc2C(=CCc2ccccc2)c2cccc(O)c21,128 to 129
15,COc1ccc(C2CC(=O)N(C(=O)Nc3ccc(F)cc3)N2C)cc1OC1CCCC1 (stereo not drawn),123 to 124
16,COc1ccc(-c2cc(=O)cc(N3CCOCC3)s2)cc1,199 to 200
17,CC(CCc1ccccc1)N(Cc1ccccc1)CC(O)c1ccc(N)c(S(N)(=O)=O)c1 (stereo not drawn),133 to 136
18,CC(C)(C)OC(=O)N[C@H](Cc1ccccc1)C(=O)N1CCC[C@H]1C(=O)NCc1ccc(C#N)nc1,167 to 170
19,O=C(c1cc(=O)c2cc(O)ccc2[nH]1)N1CCC(Oc2ccccc2)CC1,270
20,Cc1c(-c2ccccc2)oc2c(OCCN=[N+]=[N-])cccc2c1=O,119 to 120
21,CC(=O)OC[C@H](c1ccccc1)N1C(=O)C=CC1=O,131 to 132
22,CCN1C(=O)C2=C(c3cccc(Cl)c3)N(CC)C(=O)C2=C1c1cccc(Cl)c1,203 to 205
23,CC(=O)c1[nH]c(C)nc1C,83 to 87
